Results as given in patent US7915276B2, “Berberrubine derivatives having antifungal activities” (priority 2006, dated 2011).

Legend:
[1] = target: T1, chitin synthase 1 of Candida albicans chs2 Δ chs 3 Δ (Candida albicans, UniProt P23316); assay: In vitro enzyme assay for chitin synthase 1 of Candida albicans (enzyme 1); assay type: biochemical; conditions: relative to polyoxin D (50% inhibitory activity = value 5)
T1 construct: Crude enzyme was prepared using the Candida albicans chs2 Δ chs 3 Δ mutant; endogenous in cells; host or cells: Candida albicans chs2Δ/chs2Δ chs3Δ/chs3Δ mutant; 130,000 x g membrane pellet
T1 sequence (P23316 whole entry, stated change not applied): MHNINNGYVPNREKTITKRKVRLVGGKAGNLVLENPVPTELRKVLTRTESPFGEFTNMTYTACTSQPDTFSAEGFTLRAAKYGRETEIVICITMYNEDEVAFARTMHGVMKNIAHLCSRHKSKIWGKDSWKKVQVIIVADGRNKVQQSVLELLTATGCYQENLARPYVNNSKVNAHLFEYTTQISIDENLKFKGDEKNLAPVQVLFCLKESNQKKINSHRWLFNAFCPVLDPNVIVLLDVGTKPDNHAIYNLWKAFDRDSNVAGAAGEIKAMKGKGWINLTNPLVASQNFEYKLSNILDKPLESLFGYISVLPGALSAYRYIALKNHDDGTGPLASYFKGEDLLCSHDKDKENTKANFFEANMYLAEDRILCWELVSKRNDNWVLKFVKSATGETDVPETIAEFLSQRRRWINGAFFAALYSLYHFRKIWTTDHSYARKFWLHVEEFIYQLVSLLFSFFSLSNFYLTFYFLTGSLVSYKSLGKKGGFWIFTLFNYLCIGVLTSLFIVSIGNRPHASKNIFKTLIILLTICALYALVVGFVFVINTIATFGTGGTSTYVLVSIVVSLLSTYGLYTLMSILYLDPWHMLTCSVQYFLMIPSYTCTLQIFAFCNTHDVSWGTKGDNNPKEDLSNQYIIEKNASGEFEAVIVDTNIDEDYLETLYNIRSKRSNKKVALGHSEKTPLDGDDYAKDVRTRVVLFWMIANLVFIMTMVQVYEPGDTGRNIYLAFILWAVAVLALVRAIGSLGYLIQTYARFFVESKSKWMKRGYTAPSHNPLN
Method in brief: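 Trypsin-activated crude membrane chitin synthase 1 from C. albicans chs2Δ chs3Δ was incubated 90 min at 30 °C with 1.1 mM UDP-[14C]GlcNAc and 2 mM cobalt acetate in Tris-HCl pH 7.5. Filtered TCA precipitate was counted by scintillation; values are scores 1–8 against polyoxin D (5 = same concentration).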

[2] = tested on: Candida tropicalis ATCC 13803; assay: In vitro antifungal activity (MIC), NCCLS method; assay type: cell-based; conditions: for MIC (minimum inhibitory concentration): 48 hours
Method in brief: (§1)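 Test samples were serially diluted two-fold, then inoculated with fungus to a final cell density of 5×10^2 to 2.5×10^3 cell/mL, following the NCCLS method. Plates were cultured for 48 hours and the minimum inhibitory concentration recorded.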

[3] = tested on: Candida glabrata ATCC 48435; assay: In vitro antifungal activity (MIC), NCCLS method; assay type: cell-based
Method in brief: as §1

[4] = tested on: Candida parapsilosis ATCC 34136; assay: In vitro antifungal activity (MIC), NCCLS method; assay type: cell-based
Method in brief: as §1

[5] = tested on: Candida albicans ATCC 10231; assay: In vitro antifungal activity (MIC), NCCLS method; assay type: cell-based; conditions: for MIC (minimum inhibitory concentration): 48 hours
Method in brief: as §1

Candida krusei ATCC 6258 = assay: In vitro antifungal activity (MIC), NCCLS method; assay type: cell-based; conditions: for MIC (minimum inhibitory concentration): 48 hours
Method in brief: as §1

[6] = tested on: Candida lusitaniae ATCC 42720; assay: In vitro antifungal activity (MIC), NCCLS method; assay type: cell-based; conditions: for MIC (minimum inhibitory concentration): 48 hours
Method in brief: as §1

[7] = tested on: Aspergillus fumigatus ATCC 16424; assay: In vitro antifungal activity (MIC), NCCLS method; assay type: cell-based; conditions: for MIC (minimum inhibitory concentration): 48 hours
Method in brief: (§2)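 ATCC reference strains tested by NCCLS MIC method. Final inoculum 5×10^2 to 2.5×10^3 cell/mL over a two-fold dilution series; 48 h incubation.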

[8] = tested on: Candida albicans A207 (clinical isolate); assay: In vitro antifungal activity (MIC), NCCLS method; assay type: cell-based; conditions: 48 hours
Method in brief: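 According to NCCLS guidance, each compound is diluted two-fold and challenged with a fungal inoculum of 5×10^2 to 2.5×10^3 cell/mL (final). Incubation lasts 48 hours.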

[9] = tested on: Aspergillus flavus ATCC 64025; assay: In vitro antifungal activity (MIC), NCCLS method; assay type: cell-based; conditions: for MIC (minimum inhibitory concentration): 48 hours
Method in brief: as §2

[10] = tested on: Mucor ramosissimus ATCC 90286; assay: In vitro antifungal activity (MIC), NCCLS method; assay type: cell-based; conditions: for MIC (minimum inhibitory concentration): 48 hours
Method in brief: as §1

[11] = tested on: Cryptococcus neoformans ATCC 36556; assay: In vitro antifungal activity (MIC), NCCLS method; assay type: cell-based; conditions: 72 hours; for MIC (minimum inhibitory concentration): RPMI 1640 medium
Method in brief: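 Broth microdilution per NCCLS: two-fold serial dilutions of test compound inoculated with fungal suspension at a final 5×10^2 to 2.5×10^3 cell/mL. Strains other than Cryptococcus neoformans were incubated 48 hours before MIC reading.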

[12] = tested on: Aspergillus terreus ATCC 46941; assay: In vitro antifungal activity (MIC), NCCLS method; assay type: cell-based; conditions: for MIC (minimum inhibitory concentration): 48 hours
Method in brief: as §2

[13] = target: T2, chitin synthase 2 of Saccharomyces cerevisiae ECY38-38A(pAS6) (Saccharomyces cerevisiae, UniProt P14180); assay: In vitro enzyme assay for chitin synthase 2 of Saccharomyces cerevisiae (enzyme 2); assay type: biochemical; conditions: relative to polyoxin D (50% inhibitory activity = value 5)
T2 construct: made in house; host or cells: Saccharomyces cerevisiae ECY38-38A (chs1-23 chs2::LEU2 cal1/csd2) carrying plasmid pAS6, grown in galactose medium; 130,000 x g membrane pellet
T2 sequence (P14180 whole entry): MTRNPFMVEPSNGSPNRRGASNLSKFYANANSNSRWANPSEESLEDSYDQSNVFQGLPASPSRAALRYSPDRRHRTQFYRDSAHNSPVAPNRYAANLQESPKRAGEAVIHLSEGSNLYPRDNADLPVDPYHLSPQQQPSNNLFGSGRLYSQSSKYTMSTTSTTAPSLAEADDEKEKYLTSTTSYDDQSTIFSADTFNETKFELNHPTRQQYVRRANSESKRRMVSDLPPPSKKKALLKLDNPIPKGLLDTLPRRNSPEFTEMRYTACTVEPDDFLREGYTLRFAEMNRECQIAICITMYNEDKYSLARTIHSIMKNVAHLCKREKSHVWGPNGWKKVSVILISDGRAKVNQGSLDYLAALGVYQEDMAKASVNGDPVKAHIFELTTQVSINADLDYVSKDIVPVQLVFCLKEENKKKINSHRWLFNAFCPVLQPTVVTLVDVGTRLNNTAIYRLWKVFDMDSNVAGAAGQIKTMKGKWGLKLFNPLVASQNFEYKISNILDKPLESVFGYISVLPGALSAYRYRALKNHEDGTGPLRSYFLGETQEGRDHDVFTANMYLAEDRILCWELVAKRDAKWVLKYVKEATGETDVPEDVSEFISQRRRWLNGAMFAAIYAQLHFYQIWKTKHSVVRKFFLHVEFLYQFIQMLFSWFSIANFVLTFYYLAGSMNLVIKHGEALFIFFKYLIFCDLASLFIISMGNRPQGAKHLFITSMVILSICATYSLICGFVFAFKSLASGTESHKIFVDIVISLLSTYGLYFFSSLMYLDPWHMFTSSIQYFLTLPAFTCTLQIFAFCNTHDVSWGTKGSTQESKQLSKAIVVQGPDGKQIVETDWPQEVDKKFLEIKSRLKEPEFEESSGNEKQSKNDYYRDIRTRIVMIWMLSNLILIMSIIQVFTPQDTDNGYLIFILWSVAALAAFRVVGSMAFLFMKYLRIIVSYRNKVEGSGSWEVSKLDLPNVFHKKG
Method in brief: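 Values are scores: 5 means 50% inhibition at the same concentration as polyoxin D, lower scores 2- to 16-fold higher concentration, higher scores ½ to ⅛. Radiolabel from 1.1 mM UDP-[14C]-GlcNAc was incorporated into TCA-insoluble chitin over 90 min at 30 °C (pH 7.5 Tris, 2 mM Co2+). The enzyme was a trypsin-activated membrane fraction from CHS2-only S. cerevisiae ECY38-38A(pAS6).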

human pathogenic fungi = assay: Antifungal activity against human pathogenic fungi (summary statements); assay type: cell-based; conditions: berberrubine, the starting material; strains not specified
Excerpt: Candida albicans ATCC 10231, Candida lusitaniae ATCC 42720, Candida krusei ATCC 6258, Candida tropicalis ATCC 13803, Candida glabrata ATCC 48435, Candida parapsilosis ATCC 34136, Cryptococcus neoformans ATCC 36556, Aspergillus fumigatus ATCC 16424, Aspergillus flavus ATCC 64025, Aspergillus terreus ATCC 46941 and Mucor ramosissimus ATCC 90286 strains for the MIC (minimum inhibitory concentration) measurement were obtained from ATCC (American Type Culture Collection) in the U.S. The Candida albicans A207(clinical isolate) strain was used by isolating it from the patients.
The determination of MIC was performed according to the NCCLS (National Committee for Clinical Laboratory Standard) method. Each test sample solution was diluted two-fold and inoculated with a fungal suspension to reach a final inoculum size of 5×10^2 to 2.5×10^3 cell/mL. The Cryptococcus neoformans strain was cultured in the RPMI 1640 medium for 72 hours. Other strains were cultured for 48 hours.

[14] = Candida glabrata ATCC 48435, 48 hours
[15] = Candida parapsilosis ATCC 34136, 48 hours

| Compound | Relative activity Enzyme 1 [1] | MIC (minimum inhibitory concentration) [2] [µg/mL] | MIC (minimum inhibitory concentration) [3, 14] [µg/mL] | MIC (minimum inhibitory concentration) [4, 15] [µg/mL] | MIC (minimum inhibitory concentration) [5] [µg/mL] | MIC (minimum inhibitory concentration) (Candida krusei ATCC 6258) [µg/mL] | MIC (minimum inhibitory concentration) [6] [µg/mL] | MIC (minimum inhibitory concentration) [7] [µg/mL] | MIC (minimum inhibitory concentration) [8] [µg/mL] | MIC (minimum inhibitory concentration) [9] [µg/mL] | MIC (minimum inhibitory concentration) [10] [µg/mL] | MIC (minimum inhibitory concentration) [11] [µg/mL] | MIC (minimum inhibitory concentration) [12] [µg/mL] | Relative activity Enzyme 2 [13] | other results |
| --- | --- | --- | --- | --- | --- | --- | --- | --- | --- | --- | --- | --- | --- | --- | --- |
| 13-(4-tert-Butylbenzyl)-9-O-hexylberberrubine chloride [Compound No. 41] | 4 (Compounds having the inhibitory activity at 2-fold, 4-fold, 8-fold and 16-fold higher concentrations than that of polyoxin D were given the values of 4, 3, 2 and 1, respectively) | 0.125 | 2 | 2 | 0.25 | 1 | 0.5 | 2 | 0.25 | 8 | 4 | 0.5 | 8 | 6 (compounds having the inhibitory activity at ½, ¼ and ⅛ lower concentrations than that of polyoxin D were given the values of 6, 7 and 8, respectively) | – |
| 13-(4-tert-Butylbenzyl)-9-O-hexylberberrubine iodide [Compound No. 9] | 3 (Compounds having the inhibitory activity at 2-fold, 4-fold, 8-fold and 16-fold higher concentrations than that of polyoxin D were given the values of 4, 3, 2 and 1, respectively) | 0.125 | 2 | 2 | 0.25 | 1 | 1 | 2 | 0.25 | 8 | 4 | 1 | 8 | 6 (compounds having the inhibitory activity at ½, ¼ and ⅛ lower concentrations than that of polyoxin D were given the values of 6, 7 and 8, respectively) | – |
| 13-(4-tert-Butylbenzyl)-9-O-octylberberrubine chloride [Compound No. 42] | 3 (Compounds having the inhibitory activity at 2-fold, 4-fold, 8-fold and 16-fold higher concentrations than that of polyoxin D were given the values of 4, 3, 2 and 1, respectively) | 0.125 | 1 | 1 | 0.25 | 1 | 0.5 | 2 | 0.25 | 4 | 2 | 0.5 | 4 | 6 (compounds having the inhibitory activity at ½, ¼ and ⅛ lower concentrations than that of polyoxin D were given the values of 6, 7 and 8, respectively) | – |
| 13-(4-tert-Butylbenzyl)-9-O-octylberberrubine iodide [Compound No. 10] | 3 (Compounds having the inhibitory activity at 2-fold, 4-fold, 8-fold and 16-fold higher concentrations than that of polyoxin D were given the values of 4, 3, 2 and 1, respectively) | 0.125 | 2 | 2 | 0.25 | 1 | 0.5 | 2 | 0.25 | 4 | 2 | 1 | 4 | 5 (A compound having the same inhibitory activity as that of polyoxin D at the same concentration was given the value 5) | – |
| COc1ccc2c(Cc3ccc(C(C)(C)C)cc3)c3[n+](cc2c1OC)CCc1cc2c(cc1-3)OCO2.[Cl-] [Comparative compound 1, reference compound] | 1 (Compounds having the inhibitory activity at 2-fold, 4-fold, 8-fold and 16-fold higher concentrations than that of polyoxin D were given the values of 4, 3, 2 and 1, respectively) | – | – | – | – | – | – | – | – | – | – | – | – | 3 (Compounds having the inhibitory activity at 2-fold, 4-fold, 8-fold and 16-fold higher concentrations than that of polyoxin D were given the values of 4, 3, 2 and 1, respectively) | MIC ([2]; ATCC13803, 48 hours, read-out: MIC (minimum inhibitory concentration)): 2 µg/mL; antifungal activities (in words) ([3]; Candida glabrata): no antifungal activities; MIC ([3]; Nakaseomyces glabratus, ATCC48435, Candida glabrata ATCC 48435, 48 hours, read-out: MIC (minimum inhibitory concentration)): > 128 µg/mL; antifungal activities (in words) ([4]; Candida parapsilosis): no antifungal activities; MIC ([4]; Lodderomyces parapsilosis, ATCC34136, Candida parapsilosis ATCC 34136, 48 hours, read-out: MIC (minimum inhibitory concentration)): > 128 µg/mL; MIC ([5]; ATCC10231, 48 hours, read-out: MIC (minimum inhibitory concentration)): 4 µg/mL; MIC (Candida krusei ATCC 6258; Pichia kudriavzevii, ATCC6258, 48 hours, read-out: MIC (minimum inhibitory concentration)): 16 µg/mL; MIC ([6]; Clavispora lusitaniae, ATCC42720, 48 hours, read-out: MIC (minimum inhibitory concentration)): 8 µg/mL; MIC ([7]; ATCC16424, 48 hours, read-out: MIC (minimum inhibitory concentration)): 128 µg/mL; MIC ([8]; read-out: MIC (minimum inhibitory concentration)): 8 µg/mL; MIC ([9]; ATCC64025, 48 hours, read-out: MIC (minimum inhibitory concentration)): > 128 µg/mL; MIC ([10]; ATCC90286, 48 hours, read-out: MIC (minimum inhibitory concentration)): 128 µg/mL; MIC ([11]; ATCC36556, RPMI 1640 medium, read-out: MIC (minimum inhibitory concentration)): 8 µg/mL; MIC ([12]; ATCC46941, 48 hours, read-out: MIC (minimum inhibitory concentration)): > 128 µg/mL |
| COc1ccc2c(Cc3ccc(C(C)C)cc3)c3[n+](cc2c1OCCCCCCCl)CCc1cc2c(cc1-3)OCO2.[I-] [Compound No. 22, 13-(4-Isopropylbenzyl)-9-O-(6-chlorohexyl)berberrubine iodide] | 2 (Compounds having the inhibitory activity at 2-fold, 4-fold, 8-fold and 16-fold higher concentrations than that of polyoxin D were given the values of 4, 3, 2 and 1, respectively) | 0.5 | 2 | 2 | 0.5 | 1 | 2 | 2 | 0.5 | 8 | 4 | 1 | 8 | 5 (A compound having the same inhibitory activity as that of polyoxin D at the same concentration was given the value 5) | – |
| COc1ccc2cc3[n+](cc2c1O)CCc1cc2c(cc1-3)OCO2 [berberrubine] | – | – | – | – | – | – | – | – | – | – | – | – | – | – | MIC (human pathogenic fungi): 256 to 512 µg/mL |
